From US20260272907A1, “Therapeutic Tyrosine Kinase Inhibitors for Multiple Sclerosis” (Principia Biopharma Inc., priority 2022, published 2026)

System: patients with relapsing multiple sclerosis
Assay: Phase 2b dose-finding study: adverse events (TEAEs, SAEs, AESIs), safety population
Settings: for Proportion of participants with TEAEs: BTK inhibitor treatment period (12 weeks); for Adverse event: Accidental overdose / Adverse event: Alanine aminotransferase increased / Adverse event: Alopecia / Adverse event: Back pain / Adverse event: Gastroenteritis / Adverse event: Headache / Adverse event: Muscle spasticity / Adverse event: Nasopharyngitis / Adverse event: Oropharyngeal pain / Adverse event: Peripheral edema / Adverse event: Respiratory tract infection / Adverse event: Upper respiratory tract infection: 12 weeks treatment
[1] = 15 mg, 12-week treatment period
[2] = 30 mg, 12-week treatment period
[3] = 60 mg, 12-week treatment period
[4] = All (N = 130), BTK inhibitor treatment period, safety population
[5] = All Dose Groups (N = 130), Weeks 1 to 12
[6] = BTK inhibitor 5 (N = 16), Weeks 1 to 4
[7] = BTK inhibitor 5 (N = 33), BTK inhibitor treatment period, safety population
[8] = BTK inhibitor 15 (N = 16), Weeks 1 to 4
[9] = BTK inhibitor 15 (N = 32), BTK inhibitor treatment period, safety population
[10] = BTK inhibitor 30 (N = 16), Weeks 1 to 4
[11] = BTK inhibitor 30 (N = 33), BTK inhibitor treatment period, safety population
[12] = BTK inhibitor 60 (N = 16), Weeks 1 to 4
[13] = BTK inhibitor 60 (N = 32), BTK inhibitor treatment period, safety population
[14] = BTKi 5 mg (N = 16), Weeks 1 to 4
[15] = BTKi 5 mg (n = 33), Weeks 1 to 12

## C=CC(=O)N1CCC[C@@H](n2c(=O)n(-c3ccc(Oc4ccccc4)cc3)c3c(N)nccc32)C1 [the BTK inhibitor, (R)-1-(1-acryloylpiperidin-3-yl)-4-amino-3-(4-phenoxyphenyl)-1H-imidazo[4,5-c]pyridin-2(3H)-one]
5 mg, 12-week treatment period
  Alanine aminotransferase increased (TEAE): 1
  Alopecia (TEAE): 1
  Back pain (TEAE): 1
  Gastroenteritis (TEAE): 1
  Headache (TEAE): 1
  Nasopharyngitis (TEAE): 1
  Oedema peripheral (TEAE): 2
  Oropharyngeal pain (TEAE): 1
  Upper respiratory tract infection (TEAE): 2
5 mg
  Proportion of participants with TEAEs: 57.6%
5 mg, Weeks 1 to 4
  Headache (TEAE): 3 cases
  Nausea (TEAE): 2 cases
  Proportion of participants who experienced TEAEs: 31.3%
[1]
  Alopecia (TEAE): 1
  Back pain (TEAE): 1
  Headache (TEAE): 3
  Respiratory tract infection (TEAE): 1
  Upper respiratory tract infection (TEAE): 2
15 mg
  Proportion of participants with TEAEs: 53.1%
15 mg, Weeks 1 to 4
  Headache (TEAE): 2 cases
  Proportion of participants who experienced TEAEs: 18.8%
30 mg treatment period
  AESIs (alanine aminotransferase increased >3×ULN): 1
[2]
  Alanine aminotransferase increased (TEAE): 1
  Back pain (TEAE): 2
  Headache (TEAE): 1
  Muscle spasticity (TEAE): 1
  Nasopharyngitis (TEAE): 1
  Oropharyngeal pain (TEAE): 1
  Respiratory tract infection (TEAE): 1
  Upper respiratory tract infection (TEAE): 1
30 mg
  Proportion of participants with TEAEs: 54.5%
30 mg, Weeks 1 to 4
  Nausea (TEAE): 1 cases
  Proportion of participants who experienced TEAEs: 12.5%
60 mg group, all other TEAEs mild or moderate
  Severe TEAEs: one
60 mg treatment period
  AESIs (alanine aminotransferase increased >3×ULN): 1
60 mg, Cohort 1, about 8 weeks after starting treatment
  Treatment-emergent SAEs (MS relapse): One
[3]
  Accidental overdose (TEAE): 3
  Alanine aminotransferase increased (TEAE): 1
  Alopecia (TEAE): 1
  Gastroenteritis (TEAE): 2
  Headache (TEAE): 4
  Muscle spasticity (TEAE): 2
  Nasopharyngitis (TEAE): 3
  Oedema peripheral (TEAE): 2
  Oropharyngeal pain (TEAE): 1
  Respiratory tract infection (TEAE): 1
  Upper respiratory tract infection (TEAE): 1
60 mg
  Proportion of participants with TEAEs: 50.0%
60 mg, Weeks 1 to 4
  Headache (TEAE): 1 cases
  Proportion of participants who experienced TEAEs: 31.3%
5-60 mg
  Correlation between dose administered and number of TEAEs: no direct correlation
5-60 mg once daily, over the 12 weeks of treatment
  Tolerability: well-tolerated
[4]
  AESI: Alanice aminotransferase increased: 2 (1.5) n (%)
  AESI: Investigations: 2 (1.5) n (%)
  Any AESI: 2 (1.5) n (%)
  Participants with any TEAE: 69 (53.1) n (%)
  Participants with any TEAE leading to death: 0 n (%)
  Participants with any TEAE leading to study treatment discontinuation: 0 n (%)
  Participants with any severe TEAE: 1 (0.8) n (%)
  Participants with any treatment emergent SAE: 1 (0.8) n (%)
  Participants with any treatment-related TEAE: 15 (11.5) n (%)
  Participants with study discontinuation due to any TEAE: 0 n (%)
  Participants with treatment emergent SAE(s): Any class: 1 (0.8) n(%)
  Participants with treatment emergent SAE(s): Multiple sclerosis relapse: 1 (0.8) n(%)
  Participants with treatment emergent SAE(s): NERVOUS SYSTEM DISORDERS: 1 (0.8) n(%)
All (N = 130), Weeks 1 to 4
  Participants with any TEAE leading to death: 0 n (%)
  Participants with any TEAE leading to study treatment discontinuation: 0 n (%)
  Participants with any severe TEAE: 0 n (%)
  Participants with any treatment emergent SAE: 0 n (%)
  Participants with study discontinuation due to any TEAE: 0 n (%)
All Dose Groups (N = 130)
  Adverse event: Accidental overdose: 3 (2%)
  Adverse event: Alanine aminotransferase increased: 3 (2%)
  Adverse event: Alopecia: 3 (2%)
  Adverse event: Back pain: 4 (3%)
  Adverse event: Gastroenteritis: 3 (2%)
  Adverse event: Headache: 9 (7%)
  Adverse event: Muscle spasticity: 3 (2%)
  Adverse event: Nasopharyngitis: 5 (4%)
  Adverse event: Oropharyngeal pain: 3 (2%)
  Adverse event: Peripheral edema: 4 (3%)
  Adverse event: Respiratory tract infection: 3 (2%)
  Adverse event: Upper respiratory tract infection: 6 (5%)
[5]
  AE leading to death: 0 n (%)
  AE leading to study discontinuation: 0 n (%)
  Any AE (4 weeks vs. placebo 12 weeks): 70 (53.8) n (%)
  Any AE leading to study treatment discontinuation: 0 n (%)
  Any treatment-related AE: 17 (13.1) n (%)
  Serious AE: 1 (0.8) n (%)
[6]
  AESI: Alanice aminotransferase increased: 0 n (%)
  AESI: Investigations: 0 n (%)
  Any AESI: 0 n (%)
[7]
  AESI: Investigations: 0 n (%)
  Any AESI: 0 n (%)
BTK inhibitor 5, BTK inhibitor treatment period, safety population
  AESI: Alanice aminotransferase increased: 0 n (%)
[8]
  AESI: Alanice aminotransferase increased: 0 n (%)
  AESI: Investigations: 0 n (%)
  Any AESI: 0 n (%)
[9]
  AESI: Alanice aminotransferase increased: 0 n (%)
  AESI: Investigations: 0 n (%)
  Any AESI: 0 n (%)
[10]
  AESI: Alanice aminotransferase increased: 0 n (%)
  AESI: Investigations: 0 n (%)
  Any AESI: 0 n (%)
[11]
  AESI: Alanice aminotransferase increased: 1 (3.0) n (%)
  AESI: Investigations: 1 (3.0) n (%)
  Any AESI: 1 (3.0) n (%)
[12]
  AESI: Alanice aminotransferase increased: 0 n (%)
  AESI: Investigations: 0 n (%)
  Any AESI: 0 n (%)
[13]
  AESI: Alanice aminotransferase increased: 1 (3.1) n (%)
  AESI: Investigations: 1 (3.1) n (%)
  Any AESI: 1 (3.1) n (%)
BTK inhibitor treatment period, safety population
  Participants with any TEAE: 18 (54.5) n (%)
[14]
  AE leading to death: 0
  AE leading to study discontinuation: 0
  Any AE leading to study treatment discontinuation: 0
  Serious AE: 0
BTKi 5 mg (n = 33)
  Adverse event: Accidental overdose: 0%
  Adverse event: Alanine aminotransferase increased: 1 (3%)
  Adverse event: Alopecia: 1 (3%)
  Adverse event: Back pain: 1 (3%)
  Adverse event: Gastroenteritis: 1 (3%)
  Adverse event: Headache: 1 (3%)
  Adverse event: Muscle spasticity: 0%
  Adverse event: Nasopharyngitis: 1 (3%)
  Adverse event: Oropharyngeal pain: 1 (3%)
  Adverse event: Peripheral edema: 2 (6%)
  Adverse event: Respiratory tract infection: 0%
  Adverse event: Upper respiratory tract infection: 2 (6%)
[15]
  AE leading to death: 0 n (%)
  AE leading to study discontinuation: 0 n (%)
  Any AE (4 weeks vs. placebo 12 weeks): 19 (57.6) n (%)
  Any AE leading to study treatment discontinuation: 0 n (%)
